# Experimental data reported in patent US8372600B2, “Method and apparatus for measuring changes in cell volume” (priority 2004, dated 2013).
# Experiments:
# GH3 cells = conditions: previously known; cited from earlier work
# astrocyte RVD = experiment: Astrocyte regulatory volume decrease (RVD) under a 188 mOsm hypotonic stimulus, measured as chamber resistance in the microfluidic chip; assay type: cell-based, rat; conditions: 188 mOsm stimulus; for Effect on RVD: FIG. 13
# Source text: A microfluidic chip comprising a channel 15 μm deep and 1.5 mm wide was fabricated an connected to a fluid inlet and a fluid outlet. Along the length of the channel, there were two chambers (labeled 22 and 24 in FIGS. 1-3). Chamber 22 was configured for measuring cell volume and comprised a depth of 15 μm. Chamber 24 was deeper (55 μm) and served as a calibrating chamber for monitoring solution resistivity. Thin film platinum electrodes disposed in each chamber formed a four-point probe for measuring the chamber impedance. The chip was mounted on an acrylic platform to mate with external fluid connections. For testing adherent cells, the cells were cultured on glass coverslips and inverted on top of the chip so that the cells faced chamber 22. The coverslip was pressed against the chip with a clamp that applied a uniform force of approximately 50 N. For the electrical measurements, an active current source providing 1 μA of a 50 Hz sinusoid was applied to the two outer electrodes. Low frequency stimulation was utilized to minimize the dielectric loss in the silicon and to reduce the demands on the common mode rejection of the voltage amplifier. The voltage between the two inner electrodes was measured using a homemade instrumentation amplifier with input currents <1 pA to reduce polarization. A lock-in amplifier provided rectification and filtering.
# To test the microfluidic chip performance with living cells, examination of the volume regulatory response of rat astrocytes was conducted. Solution osmolality was adjusted using mannitol, which allowed a constant ionic strength to be maintained. For the most critical tests, the solution conductivities were finely titrated to be equal at all osmotic pressures; the flow rate was constant at approximately 0.3 μl/s. FIGS. 10 and 11 show the astrocytes' response to perfusion with hypotonic and hypertonic stimuli. Hypotonic media caused a rapid (˜1 min) increase in volume followed by a slow (10 min) decrease—the well known regulatory volume decrease (RVD). RVD in astrocytes is due to the efflux of KCl and neutral organic osmolytes such as taurine. The time course and extent of RVD using 188, 220, and 273 mOsm solutions (FIG. 10) are in agreement with published data. RVD in other cell types was tested, including HEK and MDCK, and similar responses were identified. However, the RVI was only observed with mild stimuli (<345 mOsm) (FIG. 11). Similar results have been previously reported for astrocytes. The RVI under the above conditions is driven by Na^+, K^+, and Cl^− fluxes through a co-transporter.
# A microfluidic chip was tested by screening peptides isolated from the tarantula Grammostola spatulata. The peptides were added to a hypotonic perfusate and their effects on astrocyte RVD were examined. […]
# [1] = target: T1, P2X7 (purinergic ion channels) (Homo sapiens, UniProt Q99572); experiment: Volume change of HEK cells transfected with P2X7, measured in the chamber; assay type: cell-based
# T1 construct: expressed in transfected cells; host or cells: HEK cells
# T1 sequence (Q99572 1-595): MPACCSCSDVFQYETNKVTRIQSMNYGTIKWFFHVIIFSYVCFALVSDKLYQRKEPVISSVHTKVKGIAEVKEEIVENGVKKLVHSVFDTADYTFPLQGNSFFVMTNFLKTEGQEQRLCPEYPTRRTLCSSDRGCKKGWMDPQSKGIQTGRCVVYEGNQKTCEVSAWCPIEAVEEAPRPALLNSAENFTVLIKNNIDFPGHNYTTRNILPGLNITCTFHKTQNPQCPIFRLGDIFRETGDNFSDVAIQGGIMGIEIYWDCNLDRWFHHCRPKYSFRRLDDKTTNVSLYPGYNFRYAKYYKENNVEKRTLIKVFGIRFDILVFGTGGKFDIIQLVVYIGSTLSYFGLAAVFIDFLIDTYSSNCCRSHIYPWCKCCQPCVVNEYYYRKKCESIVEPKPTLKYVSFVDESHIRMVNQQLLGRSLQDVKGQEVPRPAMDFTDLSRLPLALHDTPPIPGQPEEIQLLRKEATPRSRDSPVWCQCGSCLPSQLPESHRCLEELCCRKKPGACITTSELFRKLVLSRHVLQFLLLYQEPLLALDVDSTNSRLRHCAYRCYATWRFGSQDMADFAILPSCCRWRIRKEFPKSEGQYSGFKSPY
# Source text: The chamber is sensitive to more than toxic or anisotonic media. […] Thus, the device can serve as a coarse grained substitute for common (but slow) electrophysiologically assays.
# [2] = tested on: E. Coli strain (BL21(DE3)); experiment: Antibiotic sensitivity of suspended bacteria: growth monitored by chamber resistance; assay type: cell-based; conditions: 50 μg/ml and 10 μg/ml, 24° C., FIG. 14
# Method: To test the microfluidic chip performance with suspended cells, the first chamber was perfused with an E. Coli suspension. The E. Coli strain (BL21(DE3)) harbors a plasmid that confers resistance to kanamycin. The cells were tested for antibiotic sensitivity by adding varying concentrations of carbenicillin—an antibiotic to which the bacteria are susceptible. After filling the chamber with bacteria, flow was stopped and the chamber resistance monitored. […] By adding specific ligands, such as antibodies, to the walls of the measuring chamber, specific microorganisms can be purified, concentrated and assayed in a single step. Since cellular organelles are similar in size to bacteria, the present invention can also be used to study the metabolism of mitochondria, chloroplasts, and vesicles or organelles such as the ER.
compound,measurement,setting,value
GsMTx1,Effect on swelling-induced Ca2+ uptake,GH3 cells,block
same,Reduction of RVD,astrocyte RVD; 100 pM peptide in hypotonic perfusate,about 50%
same,Effect on RVD,astrocyte RVD; 1 nM peptide in hypotonic perfusate,completely blocked
same,Effect on RVD,astrocyte RVD; 10 nM peptide in hypotonic perfusate,completely blocked
same,Effect on RVD,astrocyte RVD; 1 μM peptide in hypotonic perfusate,completely blocked
Nc1ncnc2c1ncn2[C@@H]1O[C@H](COP(=O)(O)OP(=O)(O)OP(=O)(O)O)[C@@H](O)[C@H]1O [ATP],Cell volume response following activation,[1],reversible volume changes
"CC1(C)S[C@@H]2[C@H](NC(=O)C(C(=O)O)c3ccccc3)C(=O)N2[C@H]1C(=O)O (some centres unmarked) [Carbenicillin, carbenicillin]",Time until growth was visibly slowed,[2],≤ 15 min
same,Effect on bacterial growth,[2]; concentration dependent,visibly slowed growth
